Results on 6 compounds are retold here after patent US10519152B2, “Compounds and their use in treating cancer” (AstraZeneca AB, priority 2017, dated 2019).

Each structure is given as a SMILES string.

This assay deals with T1, Estrogen Receptor (ERα) in MCF-7 human ductal carcinoma breast cell line (Homo sapiens, UniProt P03372).
T1 construct: endogenous in cells; host or cells: MCF-7
T1 sequence (P03372 1-595): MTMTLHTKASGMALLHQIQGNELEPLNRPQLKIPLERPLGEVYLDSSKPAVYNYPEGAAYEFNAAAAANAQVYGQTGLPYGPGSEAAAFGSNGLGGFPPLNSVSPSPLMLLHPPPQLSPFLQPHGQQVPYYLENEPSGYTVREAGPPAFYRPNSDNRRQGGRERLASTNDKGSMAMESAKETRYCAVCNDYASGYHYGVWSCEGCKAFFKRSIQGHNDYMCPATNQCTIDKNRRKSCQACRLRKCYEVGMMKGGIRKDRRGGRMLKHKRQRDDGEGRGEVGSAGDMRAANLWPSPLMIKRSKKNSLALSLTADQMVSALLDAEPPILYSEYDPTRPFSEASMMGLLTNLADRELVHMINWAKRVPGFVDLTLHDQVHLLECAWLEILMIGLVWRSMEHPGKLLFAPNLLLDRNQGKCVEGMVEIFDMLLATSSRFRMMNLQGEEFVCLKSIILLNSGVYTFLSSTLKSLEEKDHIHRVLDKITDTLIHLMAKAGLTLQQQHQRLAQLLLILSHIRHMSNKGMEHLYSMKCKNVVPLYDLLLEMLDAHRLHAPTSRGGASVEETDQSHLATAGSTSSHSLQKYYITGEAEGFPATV
The assay can be described thus: MCF-7 ER degradation assay (cell based immuno-fluorescence). The following applies: MCF-7 cells; for ER degradation ≥ 90% at 0.3 μM: ER degradation by fulvestrant at 0.3 μM is defined as 100%; for DC50: 18-22 hours incubation, 50% reduction of ERα expression, single experiment or average of two or more, read-out: MCF-7 ER degradation IC50. The protocol:
MCF-7 ER Degradation Assay
The ability of compounds to down-regulate Estrogen Receptor (ER) numbers was assessed in a cell based immuno-fluorescence assay using the MCF-7 human ductal carcinoma breast cell line. MCF-7 cells were revived directly from a cryovial (approx 5×10^6 cells) in Assay Medium (phenol red free Dulbecco's Modified Eagle's medium (DMEM); Sigma D5921) containing 2 mM L-Glutamine and 5% (v/v) Charcoal/Dextran treated foetal calf serum. Cells were syringed once using a sterile 18 G×1.5 inch (1.2×40 mm) broad gauge needle and cell density was measured using a Coulter Counter (Beckman). Cells were further diluted in Assay Medium to a density of 3.75×10^4 cells per mL and 40 μL per well added to transparent bottomed, black, tissue culture-treated 384 well plates (Costar, No. 3712) using a Thermo Scientific Matrix WellMate or Thermo Multidrop. Following cell seeding, plates were incubated overnight at 37° C., 5% CO2 (Liconic carousel incubator). Test data was generated using the LabCyte Echo™ model 555 compound reformatter which is part of an automated workcell (Integrated Echo 2 workcell). Compound stock solutions (10 mM) of the test compounds were used to generate a 384 well compound dosing plate (Labcyte P-05525-CV1). 40 μL of each of the 10 mM compound stock solutions was dispensed into the first quadrant well and then 1:100 step-wise serial dilutions in DMSO were performed using a Hydra II (MATRIX UK) liquid handling unit to give 40 μL of diluted compound into quadrant wells 2 (0.1 mM), 3 (1 μM) and 4 (0.01 μM), respectively. 40 μL of DMSO added to wells in row P on the source plate allowed for DMSO normalisation across the dose range. To dose the control wells 40 μL of DMSO was added to row O1 and 40 μL of 100 μM fulvestrant in DMSO was added to row O3 on the compound source plate.
The Echo uses acoustic technology to perform direct microplate-to-microplate transfers of DMSO compound solutions to assay plates. The system can be programmed to transfer volumes as low as 2.5 nL in multiple increments between microplates and in so doing generates a serial dilution of compound in the assay plate which is then back-filled to normalise the DMSO concentration across the dilution range. Compounds were dispensed onto the cell plates with a compound source plate prepared as above producing a 12 point duplicate […] dose range with 3-fold dilutions and one final 10-fold dilution using the Integrated Echo 2 workcell. The maximum signal control wells were dosed with DMSO to give a final concentration of 0.3%, and the minimum signal control wells were dosed with fulvestrant to give a final concentration of 100 nM accordingly. Plates were further incubated for 18-22 hours at 37° C., 5% CO2 and then fixed by the addition of 20 μL of 11.1% (v/v) formaldehyde solution (in phosphate buffered saline (PBS)) giving a final formaldehyde concentration of 3.7% (v/v). Cells were fixed at room temperature for 20 mins before being washed two times with 250 μL PBS/Proclin (PBS with a Biocide preservative) using a BioTek platewasher, 40 μL of PBS/Proclin was then added to all wells and the plates stored at 4° C. The fixing method described above was carried out on the Integrated Echo 2 workcell. Immunostaining was performed using an automated AutoElisa workcell. The PBS/Proclin was aspirated from all wells and the cells permeabilised with 40 μL PBS containing 0.5% Tween™ 20 (v/v) for 1 hour at room temperature. The plates were washed three times in 250 μL of PBS/0.05% (v/v) Tween 20 with Proclin (PBST with a Biocide preservative) and then 20 μL of ERα (SP1) Rabbit monoclonal antibody (Thermofisher) 1:1000 in PBS/Tween™/3% (w/v) Bovine Serum Albumin was added. The plates were incubated overnight at 4° C. (Liconic carousel incubator) and then washed three times in 250 μL of PBS/0.05% (v/v) Tween™ 20 with Proclin (PBST). […]

For `Cc1ncsc1-c1ccc(CNC(=O)[C@@H]2C[C@@H](O)CN2C(=O)[C@@H](NC(=O)CCCCCCNC(=O)/C=C/c2cc(F)c([C@@H]3c4[nH]c5ccccc5c4C[C@@H](C)N3CC(C)(C)F)c(F)c2)C(C)(C)C)cc1` [Example 59, (2S,4R)-1-((S)-2-(7-((E)-3-(3,5-difluoro-4-((1R,3R)-2-(2-fluoro-2-methylpropyl)-3-methyl-2,3,4,9-tetrahydro-1H-pyrido[3,4-b]indol-1-yl)phenyl)acrylamido)heptanamido)-3,3-dimethylbutanoyl)-4-hydroxy-N-(4-(4-methylthiazol-5-yl)benzyl)pyrrolidine-2-carboxamide, Trifluoroacetic Acid], the “ER degradation ≥ 90% at 0.3 μM” value is given as “••” and the DC50 worked out at 800 pM.
`Cc1ncsc1-c1ccc(CNC(=O)[C@@H]2C[C@@H](O)CN2C(=O)[C@@H](NC(=O)C2(OCCCOCCCOc3cc(F)c([C@@H]4c5[nH]c6ccccc6c5C[C@@H](C)N4CC(C)(C)F)c(F)c3)CC2)C(C)(C)C)cc1` [Example 135, (2S,4R)-1-((S)-2-(1-(3-(3-(3,5-Difluoro-4-((1R,3R)-2-(2-fluoro-2-methylpropyl)-3-methyl-2,3,4,9-tetrahydro-1H-pyrido[3,4-b]indol-1-yl)phenoxy)propoxy)propoxy)cyclopropane-1-carboxamido)-3,3-dimethylbutanoyl)-4-hydroxy-N-(4-(4-methylthiazol-5-yl)benzyl)pyrrolidine-2-carboxamide]: the “ER degradation ≥ 90% at 0.3 μM” value is reported as “•”.
Turning to `Cc1ncsc1-c1ccc(CNC(=O)[C@@H]2C[C@@H](O)CN2C(=O)[C@@H](NC(=O)COCC(F)(F)COCCCCCOc2cc(F)c([C@@H]3c4[nH]c5ccccc5c4C[C@@H](C)N3CC(C)(C)F)c(F)c2)C(C)(C)C)cc1` [Example 126, (2S,4R)-1-((S)-2-(2-(3-((5-(3,5-Difluoro-4-((1R,3R)-2-(2-fluoro-2-methylpropyl)-3-methyl-2,3,4,9-tetrahydro-1H-pyrido[3,4-b]indol-1-yl)phenoxy)pentyl)oxy)-2,2-difluoropropoxy)acetamido)-3,3-dimethylbutanoyl)-4-hydroxy-N-(4-(4-methylthiazol-5-yl)benzyl)pyrrolidine-2-carboxamide], the “ER degradation ≥ 90% at 0.3 μM” value is reported as “•” and the DC50 was 1800 pM.
The like results for `Cc1ncsc1-c1ccc(CNC(=O)[C@@H]2C[C@@H](O)CN2C(=O)[C@@H](NC(=O)COC[C@@H]2CC2COCCOc2cc(F)c([C@@H]3c4[nH]c5ccccc5c4C[C@@H](C)N3CC(C)(C)F)c(F)c2)C(C)(C)C)cc1` (single isomer, unassigned) [Example 123, (2S,4R)-1-[(2S)-2-[[2-[[(1R*2S*)-2-[2-[3,5-Difluoro-4-[(R,3R)-2-(2-fluoro-2-methyl-propyl)-3-methyl-1,3,4,9-tetrahydropyrido[3,4-b]indol-1-yl]phenoxy]ethoxymethyl]cyclopropyl]methoxy]acetyl]amino]-3,3-dimethyl-butanoyl]-4-hydroxy-N-[[4-(4-methylthiazol-5-yl)phenyl]methyl]pyrrolidine-2-carboxamide] were, in that order, “•” and 500 pM.
The like results for `Cc1ncsc1-c1ccc(CNC(=O)[C@@H]2C[C@@H](O)CN2C(=O)[C@@H](NC(=O)COC[C@@H]2CC2COCCOc2cc(F)c([C@@H]3c4[nH]c5ccccc5c4C[C@@H](C)N3CC(C)(C)F)c(F)c2)C(C)(C)C)cc1` (single isomer, unassigned) [Example 124, (2S,4R)-1-[(2S)-2-[[2-[[(1R*2S*)-2-[2-[3,5-Difluoro-4-[(1R,3R)-2-(2-fluoro-2-methyl-propyl)-3-methyl-1,3,4,9-tetrahydropyrido[3,4-b]indol-1-yl]phenoxy]ethoxymethyl]cyclopropyl]methoxy]acetyl]amino]-3,3-dimethyl-butanoyl]-4-hydroxy-N-[[4-(4-methylthiazol-5-yl)phenyl]methyl]pyrrolidine-2-carboxamide] were, in that order, “•” and 800 pM.
As for `Cc1ncsc1-c1ccc(CNC(=O)[C@@H]2C[C@@H](O)CN2C(=O)[C@@H](NC(=O)COCc2ccc(COc3cc(F)c([C@@H]4c5[nH]c6ccccc6c5C[C@@H](C)N4CC(C)(C)F)c(F)c3)cc2)C(C)(C)C)cc1` [Example 19, (2S,4R)-1-((S)-2-(2-((4-((3,5-difluoro-4-((1R,3R)-2-(2-fluoro-2-methylpropyl)-3-methyl-2,3,4,9-tetrahydro-1H-pyrido[3,4-b]indol-1-yl)phenoxy)methyl)benzyl)oxy)acetamido)-3,3-dimethylbutanoyl)-4-hydroxy-N-(4-(4-methylthiazol-5-yl)benzyl)pyrrolidine-2-carboxamide], the “ER degradation ≥ 90% at 0.3 μM” value is “••” and the DC50 came to 3200 pM.
